Measured values as given in ChEMBL document CHEMBL1926681, “Novel inhibitors of epidermal growth factor receptor: (4-(Arylamino)-7H-pyrrolo[2,3-d]pyrimidin-6-yl)(1H-indol-2-yl)methanones and (1H-indol-2-yl)(4-(phenylamino)thieno[2,3-d]pyrimidin-6-yl)methanones” (Bioorg Med Chem, 2012).
The source made the active and inactive calls. No cut-off for these calls is given here.

Tests used:
[1] = biological target: T1, Epidermal growth factor receptor (Homo sapiens, UniProt P00533); assay: Inhibition of EGFR using poly(Glu,Tyr)4:1 as substrate and [gamma33P]ATP at 1 uM after 60 mins by scintillation counting
[2] = biological target: T1, Epidermal growth factor receptor; assay: Inhibition of EGFR using poly(Glu,Tyr)4:1 as substrate and [gamma33P]ATP after 60 mins by scintillation counting
[3] = biological target: Receptor tyrosine-protein kinase erbB-2 (Homo sapiens) (UniProt P04626); assay: Inhibition of Erbb2 using poly(Glu,Tyr)4:1 as substrate and [gamma33P]ATP at 1 uM after 60 mins by scintillation counting
[4] = biological target: Vascular endothelial growth factor receptor 2 (Homo sapiens) (UniProt P35968); assay: Inhibition of VEGFR2 using poly(Glu,Tyr)4:1 as substrate and [gamma33P]ATP at 1 uM after 60 mins by scintillation counting
[5] = biological target: Tyrosine-protein kinase ABL1 (Homo sapiens) (UniProt P00519); assay: Inhibition of ABL1 using poly(Ala, Glu, Lys, Tyr) as substrate and [gamma33P]ATP at 1 uM after 60 mins by scintillation counting
[6] = biological target: Hepatocyte growth factor receptor (Homo sapiens) (UniProt P08581); assay: Inhibition of MET using poly(Ala, Glu, Lys, Tyr) as substrate and [gamma33P]ATP at 1 uM after 60 mins by scintillation counting
[7] = biological target: T1, Epidermal growth factor receptor; assay: Inhibition of EGFR autophosphorylation in EGF-stimulated human A431 cells after 1 hr by immunoblotting; type: cell-based, A-431
[8] = Cytotoxicity against human BXF 1218L cells after 4 days by propidium iodide staining-based fluorometric analysis; type: functional, cell-based; settings: 96 h
[9] = Cytotoxicity against human BXF 1352L cells after 4 days by propidium iodide staining-based fluorometric analysis; type: functional, cell-based; settings: 96 h
[10] = Cytotoxicity against human BXF T24 cells after 4 days by propidium iodide staining-based fluorometric analysis; type: functional, cell-based; settings: T-24, 96 h
[11] = Cytotoxicity against human CXF 269L cells after 4 days by propidium iodide staining-based fluorometric analysis; type: functional, cell-based; settings: 96 h
[12] = Cytotoxicity against human DIFI cells after 4 days by propidium iodide staining-based fluorometric analysis; type: functional, cell-based; settings: 96 h
HCT-116 = assay: Cytotoxicity against human HCT116 cells after 4 days by propidium iodide staining-based fluorometric analysis; type: functional, cell-based; settings: HCT-116, 96 h
HT-29 = assay: Cytotoxicity against human HT-29 cells after 4 days by propidium iodide staining-based fluorometric analysis; type: functional, cell-based; settings: HT-29, 96 h
RKO = assay: Cytotoxicity against human RKO cells after 4 days by propidium iodide staining-based fluorometric analysis; type: functional, cell-based; settings: 96 h
[13] = Cytotoxicity against human GXF251L cells after 4 days by propidium iodide staining-based fluorometric analysis; type: functional, cell-based; settings: GXF 251L, 96 h
MKN-45 = assay: Cytotoxicity against human MKN45 cells after 4 days by propidium iodide staining-based fluorometric analysis; type: functional, cell-based; settings: MKN-45, 96 h
CAL-27 = assay: Cytotoxicity against human CAL27 cells after 4 days by propidium iodide staining-based fluorometric analysis; type: functional, cell-based; settings: CAL-27, 96 h
[14] = Cytotoxicity against human LIXF 575L cells after 4 days by propidium iodide staining-based fluorometric analysis; type: functional, cell-based; settings: 96 h
NCI-H460 = assay: Cytotoxicity against human H460 cells after 4 days by propidium iodide staining-based fluorometric analysis; type: functional, cell-based; settings: NCI-H460, 96 h
[15] = Cytotoxicity against human LXFA 289L cells after 4 days by propidium iodide staining-based fluorometric analysis; type: functional, cell-based; settings: 96 h
[16] = Cytotoxicity against human LXFA 526L cells after 4 days by propidium iodide staining-based fluorometric analysis; type: functional, cell-based; settings: 96 h
[17] = Cytotoxicity against human LXFA 629L cells after 4 days by propidium iodide staining-based fluorometric analysis; type: functional, cell-based; settings: 96 h
[18] = Cytotoxicity against human LXFL 1121L cells after 4 days by propidium iodide staining-based fluorometric analysis; type: functional, cell-based; settings: 96 h
[19] = Cytotoxicity against human LXFL 529L cells after 4 days by propidium iodide staining-based fluorometric analysis; type: functional, cell-based; settings: 96 h
[20] = Cytotoxicity against human MAXF 401NL cells after 4 days by propidium iodide staining-based fluorometric analysis; type: functional, cell-based; settings: 96 h
MCF7 = assay: Cytotoxicity against human MCF7 cells after 4 days by propidium iodide staining-based fluorometric analysis; type: functional, cell-based; settings: MCF7, 96 h
[21] = Cytotoxicity against human MDA231 cells after 4 days by propidium iodide staining-based fluorometric analysis; type: functional, cell-based; settings: MDA-MB-231, 96 h
[22] = Cytotoxicity against human MEXF 1341L cells after 4 days by propidium iodide staining-based fluorometric analysis; type: functional, cell-based; settings: 96 h
[23] = Cytotoxicity against human MEXF 276L cells after 4 days by propidium iodide staining-based fluorometric analysis; type: functional, cell-based; settings: MEXF276L, 96 h
[24] = Cytotoxicity against human MEXF 462NL cells after 4 days by propidium iodide staining-based fluorometric analysis; type: functional, cell-based; settings: 96 h
[25] = Cytotoxicity against human OVXF 899L cells after 4 days by propidium iodide staining-based fluorometric analysis; type: functional, cell-based; settings: 96 h
OVCAR-3 = assay: Cytotoxicity against human OVCAR3 cells after 4 days by propidium iodide staining-based fluorometric analysis; type: functional, cell-based; settings: OVCAR-3, 96 h
[26] = Cytotoxicity against human PAXF 1657L cells after 4 days by propidium iodide staining-based fluorometric analysis; type: functional, cell-based; settings: 96 h
[27] = Cytotoxicity against human PAXF 546L cells after 4 days by propidium iodide staining-based fluorometric analysis; type: functional, cell-based; settings: 96 h
PANC-1 = assay: Cytotoxicity against human PANC1 cells after 4 days by propidium iodide staining-based fluorometric analysis; type: functional, cell-based; settings: PANC-1, 96 h
CWR22R = assay: Cytotoxicity against human 22Rv1 cells after 4 days by propidium iodide staining-based fluorometric analysis; type: functional, cell-based; settings: 22Rv1, 96 h
DU-145 = assay: Cytotoxicity against human DU145 cells after 4 days by propidium iodide staining-based fluorometric analysis; type: functional, cell-based; settings: DU-145, 96 h
LNCaP = assay: Cytotoxicity against human LNCAP cells after 4 days by propidium iodide staining-based fluorometric analysis; type: functional, cell-based; settings: 96 h
[28] = Cytotoxicity against human PC3M cells after 4 days by propidium iodide staining-based fluorometric analysis; type: functional, cell-based; settings: PC-3M, 96 h
[29] = Cytotoxicity against human PXF 1118L cells after 4 days by propidium iodide staining-based fluorometric analysis; type: functional, cell-based; settings: 96 h
[30] = Cytotoxicity against human PXF 1752L cells after 4 days by propidium iodide staining-based fluorometric analysis; type: functional, cell-based; settings: 96 h
[31] = Cytotoxicity against human PXF 698L cells after 4 days by propidium iodide staining-based fluorometric analysis; type: functional, cell-based; settings: 96 h
[32] = Cytotoxicity against human RXF 1781L cells after 4 days by propidium iodide staining-based fluorometric analysis; type: functional, cell-based; settings: 96 h
[33] = Cytotoxicity against human RXF 393NL cells after 4 days by propidium iodide staining-based fluorometric analysis; type: functional, cell-based; settings: 96 h
[34] = Cytotoxicity against human RXF 486L cells after 4 days by propidium iodide staining-based fluorometric analysis; type: functional, cell-based; settings: 96 h
SAOS-2 = assay: Cytotoxicity against human Saos2 cells after 4 days by propidium iodide staining-based fluorometric analysis; type: functional, cell-based; settings: SAOS-2, 96 h, read-out: IC50
TE-671 = assay: Cytotoxicity against human TE671 cells after 4 days by propidium iodide staining-based fluorometric analysis; type: functional, cell-based; settings: TE-671, 96 h
[35] = Cytotoxicity against human UXF 1138L cells after 4 days by propidium iodide staining-based fluorometric analysis; type: functional, cell-based; settings: 96 h

T1 sequence (P00533 whole entry): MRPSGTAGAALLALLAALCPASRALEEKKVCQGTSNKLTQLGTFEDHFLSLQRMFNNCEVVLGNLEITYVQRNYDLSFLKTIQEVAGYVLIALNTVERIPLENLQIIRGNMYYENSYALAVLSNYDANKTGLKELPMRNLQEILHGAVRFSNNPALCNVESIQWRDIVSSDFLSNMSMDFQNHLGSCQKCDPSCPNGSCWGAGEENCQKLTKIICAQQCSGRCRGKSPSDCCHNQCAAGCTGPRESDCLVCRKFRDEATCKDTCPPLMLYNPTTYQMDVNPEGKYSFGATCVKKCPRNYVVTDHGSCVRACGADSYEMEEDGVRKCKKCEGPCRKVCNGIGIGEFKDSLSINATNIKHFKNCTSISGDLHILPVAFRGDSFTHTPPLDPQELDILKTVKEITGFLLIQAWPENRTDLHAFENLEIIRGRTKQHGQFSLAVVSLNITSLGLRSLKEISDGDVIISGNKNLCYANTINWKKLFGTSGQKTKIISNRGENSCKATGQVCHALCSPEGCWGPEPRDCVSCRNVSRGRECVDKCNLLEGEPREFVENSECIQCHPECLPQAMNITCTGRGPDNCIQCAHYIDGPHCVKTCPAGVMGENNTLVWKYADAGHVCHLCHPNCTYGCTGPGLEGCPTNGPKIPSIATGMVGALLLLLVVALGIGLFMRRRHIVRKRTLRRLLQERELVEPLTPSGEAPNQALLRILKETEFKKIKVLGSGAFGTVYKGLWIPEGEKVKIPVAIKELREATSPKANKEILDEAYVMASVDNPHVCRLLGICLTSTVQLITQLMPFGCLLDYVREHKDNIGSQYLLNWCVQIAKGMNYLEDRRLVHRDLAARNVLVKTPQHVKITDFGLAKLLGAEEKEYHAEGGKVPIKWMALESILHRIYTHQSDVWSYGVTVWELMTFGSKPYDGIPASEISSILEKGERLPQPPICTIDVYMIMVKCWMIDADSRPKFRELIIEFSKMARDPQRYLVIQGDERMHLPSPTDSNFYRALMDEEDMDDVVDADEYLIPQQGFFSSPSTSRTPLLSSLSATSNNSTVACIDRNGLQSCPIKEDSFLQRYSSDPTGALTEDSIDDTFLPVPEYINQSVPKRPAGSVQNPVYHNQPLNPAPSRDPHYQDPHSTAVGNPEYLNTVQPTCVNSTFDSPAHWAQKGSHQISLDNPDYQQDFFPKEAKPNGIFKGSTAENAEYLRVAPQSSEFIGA
Chain of Receptor tyrosine-protein kinase erbB-2 (Homo sapiens) (P04626 whole entry): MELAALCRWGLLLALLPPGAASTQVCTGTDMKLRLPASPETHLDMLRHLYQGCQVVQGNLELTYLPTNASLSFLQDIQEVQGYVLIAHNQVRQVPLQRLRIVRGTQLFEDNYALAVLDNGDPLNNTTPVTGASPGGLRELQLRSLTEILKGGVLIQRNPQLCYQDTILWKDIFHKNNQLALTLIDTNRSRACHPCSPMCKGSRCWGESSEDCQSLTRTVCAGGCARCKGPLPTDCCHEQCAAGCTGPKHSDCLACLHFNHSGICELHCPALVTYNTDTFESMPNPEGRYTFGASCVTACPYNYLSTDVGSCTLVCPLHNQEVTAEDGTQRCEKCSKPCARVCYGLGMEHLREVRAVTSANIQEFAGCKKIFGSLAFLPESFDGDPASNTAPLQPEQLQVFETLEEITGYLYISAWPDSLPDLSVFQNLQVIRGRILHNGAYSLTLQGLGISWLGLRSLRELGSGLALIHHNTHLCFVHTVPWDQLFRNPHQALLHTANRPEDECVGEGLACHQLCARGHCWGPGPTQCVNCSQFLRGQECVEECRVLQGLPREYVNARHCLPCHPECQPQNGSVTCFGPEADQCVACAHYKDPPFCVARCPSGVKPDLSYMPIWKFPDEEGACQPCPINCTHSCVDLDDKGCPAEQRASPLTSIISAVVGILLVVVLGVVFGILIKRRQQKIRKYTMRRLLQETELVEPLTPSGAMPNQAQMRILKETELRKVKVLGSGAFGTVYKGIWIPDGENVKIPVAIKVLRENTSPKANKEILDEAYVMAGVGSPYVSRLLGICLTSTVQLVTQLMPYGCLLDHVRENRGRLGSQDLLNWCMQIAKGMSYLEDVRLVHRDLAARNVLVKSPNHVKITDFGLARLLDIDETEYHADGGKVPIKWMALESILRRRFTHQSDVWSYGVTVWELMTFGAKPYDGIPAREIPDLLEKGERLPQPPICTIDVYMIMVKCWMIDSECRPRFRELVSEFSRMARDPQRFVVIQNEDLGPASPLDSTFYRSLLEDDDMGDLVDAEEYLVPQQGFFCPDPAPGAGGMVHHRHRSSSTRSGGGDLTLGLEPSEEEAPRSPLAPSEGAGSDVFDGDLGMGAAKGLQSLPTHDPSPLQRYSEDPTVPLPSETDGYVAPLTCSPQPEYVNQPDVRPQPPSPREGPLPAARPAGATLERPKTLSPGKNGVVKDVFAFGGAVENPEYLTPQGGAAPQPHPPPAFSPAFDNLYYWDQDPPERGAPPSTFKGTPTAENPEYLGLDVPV
Chain of Hepatocyte growth factor receptor (Homo sapiens) (P08581 whole entry): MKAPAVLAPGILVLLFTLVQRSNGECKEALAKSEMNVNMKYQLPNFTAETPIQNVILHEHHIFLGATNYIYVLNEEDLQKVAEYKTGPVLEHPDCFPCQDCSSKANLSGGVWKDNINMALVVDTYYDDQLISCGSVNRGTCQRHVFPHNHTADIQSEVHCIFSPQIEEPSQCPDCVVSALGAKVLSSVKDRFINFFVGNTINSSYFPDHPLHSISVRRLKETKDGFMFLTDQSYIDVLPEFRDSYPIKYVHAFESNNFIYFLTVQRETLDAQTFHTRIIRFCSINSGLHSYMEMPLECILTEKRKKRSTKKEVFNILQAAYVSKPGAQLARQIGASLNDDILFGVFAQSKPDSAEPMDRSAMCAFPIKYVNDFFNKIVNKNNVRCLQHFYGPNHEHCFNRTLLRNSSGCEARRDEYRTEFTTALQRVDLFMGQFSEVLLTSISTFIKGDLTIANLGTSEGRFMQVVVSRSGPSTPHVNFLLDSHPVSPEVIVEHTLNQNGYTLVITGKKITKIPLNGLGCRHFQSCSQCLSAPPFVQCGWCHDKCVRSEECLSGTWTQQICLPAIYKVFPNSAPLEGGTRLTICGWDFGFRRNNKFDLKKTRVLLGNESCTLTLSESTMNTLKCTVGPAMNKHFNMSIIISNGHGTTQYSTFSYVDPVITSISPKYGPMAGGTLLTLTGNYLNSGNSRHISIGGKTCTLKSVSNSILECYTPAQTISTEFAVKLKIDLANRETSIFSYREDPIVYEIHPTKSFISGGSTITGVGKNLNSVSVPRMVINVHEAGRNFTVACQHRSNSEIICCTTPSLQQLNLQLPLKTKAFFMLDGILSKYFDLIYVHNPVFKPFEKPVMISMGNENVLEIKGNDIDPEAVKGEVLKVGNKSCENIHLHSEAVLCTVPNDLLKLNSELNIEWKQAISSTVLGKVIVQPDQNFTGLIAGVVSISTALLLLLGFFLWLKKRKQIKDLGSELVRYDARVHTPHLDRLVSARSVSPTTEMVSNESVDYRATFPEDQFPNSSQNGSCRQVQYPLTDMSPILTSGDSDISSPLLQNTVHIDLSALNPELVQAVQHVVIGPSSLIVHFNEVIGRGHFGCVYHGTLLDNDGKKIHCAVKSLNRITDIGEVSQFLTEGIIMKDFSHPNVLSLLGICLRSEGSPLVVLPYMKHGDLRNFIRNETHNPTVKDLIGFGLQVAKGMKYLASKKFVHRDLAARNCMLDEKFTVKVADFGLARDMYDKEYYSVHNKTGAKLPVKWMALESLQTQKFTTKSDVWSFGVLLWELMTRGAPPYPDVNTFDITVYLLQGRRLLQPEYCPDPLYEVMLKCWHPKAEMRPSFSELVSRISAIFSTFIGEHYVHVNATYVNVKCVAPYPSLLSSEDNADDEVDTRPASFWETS
Chain of Tyrosine-protein kinase ABL1 (Homo sapiens) (P00519 whole entry): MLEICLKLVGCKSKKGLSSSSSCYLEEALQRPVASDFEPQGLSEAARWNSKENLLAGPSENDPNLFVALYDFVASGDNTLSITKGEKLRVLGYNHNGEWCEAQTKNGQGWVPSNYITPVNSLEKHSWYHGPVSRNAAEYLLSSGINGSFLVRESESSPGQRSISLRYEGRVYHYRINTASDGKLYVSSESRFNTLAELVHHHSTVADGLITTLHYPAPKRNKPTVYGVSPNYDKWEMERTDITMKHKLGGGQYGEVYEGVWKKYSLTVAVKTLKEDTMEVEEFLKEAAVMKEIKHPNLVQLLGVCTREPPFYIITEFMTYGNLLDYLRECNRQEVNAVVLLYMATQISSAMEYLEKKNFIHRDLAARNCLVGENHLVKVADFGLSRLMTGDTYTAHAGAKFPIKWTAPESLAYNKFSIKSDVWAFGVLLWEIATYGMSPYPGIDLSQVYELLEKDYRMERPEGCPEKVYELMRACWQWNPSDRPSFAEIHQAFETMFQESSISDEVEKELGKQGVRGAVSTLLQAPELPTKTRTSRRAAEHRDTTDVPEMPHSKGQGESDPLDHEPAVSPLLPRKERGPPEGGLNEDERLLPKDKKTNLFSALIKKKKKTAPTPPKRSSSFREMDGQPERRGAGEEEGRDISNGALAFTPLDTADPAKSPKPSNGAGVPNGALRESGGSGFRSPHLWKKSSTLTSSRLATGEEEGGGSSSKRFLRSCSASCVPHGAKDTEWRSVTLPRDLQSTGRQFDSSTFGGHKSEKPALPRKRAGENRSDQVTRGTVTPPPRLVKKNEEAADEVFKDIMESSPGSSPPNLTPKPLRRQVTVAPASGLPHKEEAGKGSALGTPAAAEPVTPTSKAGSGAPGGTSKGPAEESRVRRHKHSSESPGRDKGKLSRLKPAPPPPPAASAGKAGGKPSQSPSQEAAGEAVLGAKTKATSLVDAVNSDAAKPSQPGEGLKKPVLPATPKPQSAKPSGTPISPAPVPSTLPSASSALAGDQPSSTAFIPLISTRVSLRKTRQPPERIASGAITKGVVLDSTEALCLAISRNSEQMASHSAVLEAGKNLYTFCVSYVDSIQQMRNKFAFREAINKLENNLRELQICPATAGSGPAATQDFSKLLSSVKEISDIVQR

- inhibition [1]: 99%
- IC50 [2]: 0.0166 µM
- inhibition [3]: 73%
- inhibition [4]: 20%
- inhibition [5]: inactive
- inhibition [6]: inactive
- IC50 [7]: 0.3 µM
Structure (SMILES): O=C(c1cc2ccccc2[nH]1)c1cc2c(Nc3cccc(Cl)c3)ncnc2s1
- IC50 [8]: 21.5 µM
- IC50 [9]: 15.9 µM
- IC50 [10]: 23.7 µM
- IC50 [11]: 28.9 µM
- IC50 [12]: 1.8 µM
- IC50 (HCT-116): 18.9 µM
- IC50 (HT-29): 17.7 µM
- IC50 (RKO): 18.1 µM
- IC50 [13]: 4.3 µM
- IC50 (MKN-45): 20.2 µM
- IC50 (CAL-27): 3 µM
- IC50 [14]: 18.1 µM
- IC50 (NCI-H460): 17.7 µM
- IC50 [15]: 4.7 µM
- IC50 [16]: 13.6 µM
- IC50 [17]: 6 µM
- IC50 [18]: 16 µM
- IC50 [19]: 7.6 µM
- IC50 [20]: 7.3 µM
- IC50 (MCF7): 12.5 µM
- IC50 [21]: 23.4 µM
- IC50 [22]: 20.1 µM
- IC50 [23]: 27.1 µM
- IC50 [24]: 24 µM
- IC50 [25]: 13.9 µM
- IC50 (OVCAR-3): 15.3 µM
- IC50 [26]: 47.6 µM
- IC50 [27]: 25.1 µM
- IC50 (PANC-1): 14.8 µM
- IC50 (CWR22R): 14 µM
- IC50 (DU-145): 9.2 µM
- IC50 (LNCaP): 11.3 µM
- IC50 [28]: 14.1 µM
- IC50 [29]: 49.7 µM
- IC50 [30]: 30.7 µM
- IC50 [31]: 31 µM
- IC50 [32]: 20 µM
- IC50 [33]: 26.4 µM
- IC50 [34]: 13.1 µM
- IC50 (SAOS-2): 19.3 µM
- IC50 (TE-671): 24.8 µM
- IC50 [35]: 8.6 µM
